Assay results published in US9757375B2, “Compounds that inhibit human DNA ligases and methods of treating cancer” (University of Maryland, Baltimore, priority 2007, dated 2017).
Entries after “also recorded” stand apart in the source; their conditions may differ. Where two headings read alike, the source gives them in different places.

Columns and labels:
[1] = target: T1, hLigI (Homo sapiens, UniProt P18858); assay: High-throughput fluorescence-based DNA joining (ligation) assay; format: biochemical; conditions: for inhibition of hLigI (DNA ligase I), in words: in vitro screen, 100 μmol/L, the 15 hLigI inhibitors inhibited by >50%
T1 construct: made in house
Experimental: (§1) Candidate ligase inhibitors identified by CADD were assayed for their ability to inhibit hLigI and T4 DNA ligase using a high-throughput, fluorescence energy transfer-based DNA joining assay (22). Duplicate reactions (30 μL) containing 10 pmol of nicked DNA substrate and either 0.25 pmol of hLigI or 10 units of T4 DNA ligase were incubated in the presence or absence of 100 μmol/L of the putative inhibitor. DNA binding by the candidate DNA ligase inhibitors was measured by displacement of ethidium bromide from DNA as previously described (30).
(§2) The method for screening compounds comprises testing the compound for the ability to inhibit human DNA ligases I, III and IV with a high throughput fluorescence-based ligation assay. In this assay, phosphodiester bond formation covalently links together two oligonucleotides, one of which is a fluorescent donor AF488 that is 11 nucleotides from the 3′ terminus and the other contains a fluorescence acceptor and quencher, BHQ1 that is 15 nucleotides from the 5′ terminus. When these oligonucleotides are present in separate duplexes and in the same nicked or intact duplex, there is no significant quenching of fluorescence because the donor and acceptor are too far apart. As single-strands neither the AF488 oligonucleotide nor the BHQ1 oligonucleotides have significant secondary structure. However, when these oligonucleotides are ligated together, the resultant single strand forms a stable hairpin structure, in which the AF488 and BHQ1 groups are very close together, resulting in efficient intra-molecular quenching of fluorescence. Thus, in the DNA joining assay, the DNA substrate is denatured after incubation with the DNA ligase and then renatured in the presence of a 20-fold excess of an oligonucleotide that is identical to the ligated strand containing the fluorescent door and acceptor except that it lacks these modifications. Using this assay, DNA joining, which results in reduced fluorescence at 518 nm, can be measured rapidly, quantitatively and with high-throughput using a fluorescence plate reader.
(§3) Applicants developed a novel high throughput fluorescence-based ligation assay by modifying the sequence of the oligos to optimize hairpin formation by the single strand ligated product of the high throughput fluorescence-based ligation assay of Chen et al (22). […] Compound stock solutions, which were 10 mM in 0.5% DMSO, were diluted in 0.5% DMSO. Human DNA ligases I and III were assayed with a nicked DNA substrate whereas as the substrate for human DNA ligase IV was two oligonucleotide duplexes with short complementary single strand ends.

[2] = target: T2, human DNA ligase III (Homo sapiens, UniProt P49916); assay: as above; format: biochemical
T2 sequence (P49916 1-862 isoform P49916-4): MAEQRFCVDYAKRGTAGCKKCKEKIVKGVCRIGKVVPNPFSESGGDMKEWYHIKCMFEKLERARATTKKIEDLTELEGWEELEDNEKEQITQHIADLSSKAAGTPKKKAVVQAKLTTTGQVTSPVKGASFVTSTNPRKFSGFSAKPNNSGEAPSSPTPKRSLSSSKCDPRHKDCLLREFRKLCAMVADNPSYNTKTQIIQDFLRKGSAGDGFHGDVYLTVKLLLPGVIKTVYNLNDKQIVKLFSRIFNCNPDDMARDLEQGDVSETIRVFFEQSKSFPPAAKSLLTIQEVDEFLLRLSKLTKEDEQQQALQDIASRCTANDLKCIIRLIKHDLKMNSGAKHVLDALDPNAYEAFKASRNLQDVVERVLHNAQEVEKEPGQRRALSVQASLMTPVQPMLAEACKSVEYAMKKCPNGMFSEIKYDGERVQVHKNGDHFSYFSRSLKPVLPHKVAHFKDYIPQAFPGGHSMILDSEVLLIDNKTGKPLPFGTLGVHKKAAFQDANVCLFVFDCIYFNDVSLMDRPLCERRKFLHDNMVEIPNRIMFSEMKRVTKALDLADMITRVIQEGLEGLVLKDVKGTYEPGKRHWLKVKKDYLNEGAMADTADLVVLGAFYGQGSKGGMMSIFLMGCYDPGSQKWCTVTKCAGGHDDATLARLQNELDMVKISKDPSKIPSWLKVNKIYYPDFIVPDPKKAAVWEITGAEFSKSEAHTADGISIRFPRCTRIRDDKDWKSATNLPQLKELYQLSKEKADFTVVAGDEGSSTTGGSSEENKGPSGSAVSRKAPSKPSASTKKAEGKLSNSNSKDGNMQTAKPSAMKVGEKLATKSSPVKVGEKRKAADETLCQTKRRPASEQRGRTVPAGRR
Description: as §2, §3

[3] = target: human DNA ligase IV (Homo sapiens, UniProt P49917); assay: as above; format: biochemical; conditions: for % activity Inhibition hLigIV 100 uM: Ø not defined (0 in Table 5A)
Description: as §2, §3

[4] = target: T3, T4 DNA ligase (Enterobacteria phage T4, UniProt P00970); assay: High-throughput fluorescence-based DNA joining assay, non-specific inhibitor control; format: biochemical, bacteriophage T4
T3 construct: purchased NEB
T3 sequence (P00970 1-487): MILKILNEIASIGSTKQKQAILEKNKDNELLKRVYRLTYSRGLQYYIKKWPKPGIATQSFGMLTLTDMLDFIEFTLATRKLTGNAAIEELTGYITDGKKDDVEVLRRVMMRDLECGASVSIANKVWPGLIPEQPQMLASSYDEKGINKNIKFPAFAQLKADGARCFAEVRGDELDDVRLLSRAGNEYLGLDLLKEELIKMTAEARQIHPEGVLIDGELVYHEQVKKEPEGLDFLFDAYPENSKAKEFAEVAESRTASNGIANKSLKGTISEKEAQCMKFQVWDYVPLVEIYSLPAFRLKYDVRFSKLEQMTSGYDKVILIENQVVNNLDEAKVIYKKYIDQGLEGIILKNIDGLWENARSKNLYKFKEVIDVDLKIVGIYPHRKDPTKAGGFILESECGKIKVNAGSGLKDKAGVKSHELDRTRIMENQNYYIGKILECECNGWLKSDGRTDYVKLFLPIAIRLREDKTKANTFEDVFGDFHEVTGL
Experimental: as §1
In addition, to identify compounds that may be non-specific inhibitors of DNA joining, the 192 compounds were also assayed for their ability to inhibit bacteriophage T4 DNA ligase, an enzyme that utilizes the same reaction mechanism as hLigI, has similar adenylation and OB-fold domains but lacks a DBD domain. (6) Although this is also an ATP-dependent DNA ligase, it lacks the domain containing the binding pocket targeted by the in silico screen. Compounds that inhibited T4 DNA ligase were eliminated as non-specific inhibitors that most likely bind to the DNA.

[5] = 100 μM, read-out: % of inhibition @ 100 μM (Helen's data) hLigI
[6] = read-out: % of inhibition @ 100 μM (Helen's data) hLigIII
[7] = read-out: % of inhibition @ 100 μM (Helen's data) hLigIV
[8] = read-out: % activity Inhibition LigT4 100 uM
[9] = 100 uM, read-out: % activity Inhibition hLigI 100 uM
[10] = 100 uM, Ø not defined (0 in Table 5A)
[11] = 100 uM, Ø not defined (0 in Table 5A), read-out: % activity Inhibition hLigIII 100 uM

T1 sequence (P18858 whole entry): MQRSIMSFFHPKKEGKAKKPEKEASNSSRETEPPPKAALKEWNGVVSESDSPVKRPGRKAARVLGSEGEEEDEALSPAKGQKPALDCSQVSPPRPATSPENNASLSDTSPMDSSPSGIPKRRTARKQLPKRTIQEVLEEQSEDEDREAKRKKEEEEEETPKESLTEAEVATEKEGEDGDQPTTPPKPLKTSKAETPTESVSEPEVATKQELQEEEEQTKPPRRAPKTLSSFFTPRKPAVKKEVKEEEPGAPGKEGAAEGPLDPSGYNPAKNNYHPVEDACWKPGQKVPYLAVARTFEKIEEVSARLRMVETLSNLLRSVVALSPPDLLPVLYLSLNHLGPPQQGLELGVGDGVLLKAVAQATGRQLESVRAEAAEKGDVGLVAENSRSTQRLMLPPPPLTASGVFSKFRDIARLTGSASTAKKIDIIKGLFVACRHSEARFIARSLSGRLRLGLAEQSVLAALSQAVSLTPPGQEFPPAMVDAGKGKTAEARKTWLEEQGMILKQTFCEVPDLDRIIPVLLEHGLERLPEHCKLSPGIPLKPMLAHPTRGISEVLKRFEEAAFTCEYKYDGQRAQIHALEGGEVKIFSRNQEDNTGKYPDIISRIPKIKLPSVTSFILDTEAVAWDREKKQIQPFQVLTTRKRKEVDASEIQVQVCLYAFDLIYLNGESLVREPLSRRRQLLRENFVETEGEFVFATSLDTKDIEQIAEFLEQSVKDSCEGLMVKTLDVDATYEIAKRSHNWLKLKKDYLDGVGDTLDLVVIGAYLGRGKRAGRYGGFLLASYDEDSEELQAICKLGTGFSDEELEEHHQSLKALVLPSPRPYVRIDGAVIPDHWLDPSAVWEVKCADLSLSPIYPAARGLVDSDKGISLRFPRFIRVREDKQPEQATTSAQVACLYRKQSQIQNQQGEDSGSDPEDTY
human DNA ligase IV, sequence (P49917 whole entry): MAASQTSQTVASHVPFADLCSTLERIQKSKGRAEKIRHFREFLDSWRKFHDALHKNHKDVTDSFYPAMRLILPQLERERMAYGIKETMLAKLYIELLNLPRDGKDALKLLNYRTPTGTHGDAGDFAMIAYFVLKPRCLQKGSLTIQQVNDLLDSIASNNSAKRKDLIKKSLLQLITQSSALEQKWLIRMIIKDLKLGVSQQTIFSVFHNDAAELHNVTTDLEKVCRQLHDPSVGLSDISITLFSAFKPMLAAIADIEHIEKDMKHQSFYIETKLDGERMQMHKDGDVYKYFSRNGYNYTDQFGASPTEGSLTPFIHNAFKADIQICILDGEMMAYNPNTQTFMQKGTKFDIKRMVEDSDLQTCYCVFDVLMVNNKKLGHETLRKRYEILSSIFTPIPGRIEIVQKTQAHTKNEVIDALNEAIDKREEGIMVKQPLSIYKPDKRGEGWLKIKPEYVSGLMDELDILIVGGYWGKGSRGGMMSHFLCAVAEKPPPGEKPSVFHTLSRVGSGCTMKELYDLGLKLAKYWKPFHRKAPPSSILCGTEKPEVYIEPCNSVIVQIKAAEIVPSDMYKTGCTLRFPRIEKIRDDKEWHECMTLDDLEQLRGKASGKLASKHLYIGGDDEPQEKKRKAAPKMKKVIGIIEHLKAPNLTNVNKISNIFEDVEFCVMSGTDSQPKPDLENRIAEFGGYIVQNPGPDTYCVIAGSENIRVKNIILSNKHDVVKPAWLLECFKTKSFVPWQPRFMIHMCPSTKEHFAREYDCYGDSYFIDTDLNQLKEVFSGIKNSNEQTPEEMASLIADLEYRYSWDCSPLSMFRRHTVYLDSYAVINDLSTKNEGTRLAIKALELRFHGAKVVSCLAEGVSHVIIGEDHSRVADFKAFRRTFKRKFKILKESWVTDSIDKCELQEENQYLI
human DNA ligase IV, sequence (Q13426 whole entry partner): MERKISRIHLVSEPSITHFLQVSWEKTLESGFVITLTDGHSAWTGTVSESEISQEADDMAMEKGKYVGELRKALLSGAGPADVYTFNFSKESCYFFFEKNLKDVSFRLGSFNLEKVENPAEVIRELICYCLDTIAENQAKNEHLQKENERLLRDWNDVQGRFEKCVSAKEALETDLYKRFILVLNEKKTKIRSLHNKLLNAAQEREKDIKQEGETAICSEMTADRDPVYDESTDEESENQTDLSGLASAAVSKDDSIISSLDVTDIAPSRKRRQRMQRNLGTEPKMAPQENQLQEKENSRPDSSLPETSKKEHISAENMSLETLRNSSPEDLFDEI

Row | SMILES | inhibition at 100 µM [4, 8] | inhibition at 100 µM [1, 9] | % activity Inhibition hLigIII 100 uM [2, 10] | % activity Inhibition hLigIV 100 uM [3] | further results
1 | O=C(O)c1ccc([N+](=O)[O-])c(C(=O)O)n1 [Compound 212] |  |  |  |  | inhibition at 100 µM [1, 5]: < 20%; inhibition at 100 µM [2, 6]: < 20%; inhibition at 100 µM [3, 7]: < 20%
2 | CCC(Nc1ncnc2ccccc12)C(=O)O (stereo not drawn) [Compound 51] | 0% | 24.3 ± 13.5% | Ø | Ø | 
3 | COC(=O)c1ccc(S(=O)(=O)O)o1 [Compound 55] |  |  | Ø | Ø | % activity Inhibition LigT4 100 uM [4]: 0.58 ± 3.1%; % activity Inhibition hLigI 100 uM ([1]; 100 uM): 7.5 ± 9.3%
4 | Cc1[nH]c2ccc(C(=O)O)cc2c1CC(=O)O [Compound 35] | 3.7 ± 2.3% | 38.7% | Ø | Ø | 
5 | O=C(O)c1ccc2nccnc2c1 [Compound 175] |  |  |  |  | inhibition of hLigI (DNA ligase I), in words [1]: inhibited hLigI
6 | COC(=O)c1scc(Br)c1O [Compound 124] |  |  |  |  | inhibition at 100 µM [1, 5]: < 20%; inhibition at 100 µM [2, 6]: < 20%; inhibition at 100 µM [3, 7]: < 20%
7 | N#CCSc1nnc(SCC#N)s1 [Compound 123] |  |  |  |  | inhibition of hLigI (DNA ligase I), in words [1]: inhibited hLigI
8 | Nc1nonc1C(=O)O [Compound 54] | 6.9 ± 0.45% | 32.2 ± 10.5% | Ø | Ø | 
9 | O=C(O)Cc1ccccc1S(=O)(=O)c1ccc(Cl)cc1 [Compound 193] |  |  | Ø | Ø | % activity Inhibition LigT4 100 uM [4]: 0.44 ± 2.1%; % activity Inhibition hLigI 100 uM ([1]; 100 uM): 28.2 ± 34.4%; % of inhibition @ 100 μM (Helen's data) hLigI ([1]; 100 μM): NI (NI- no inhibition); % of inhibition @ 100 μM (Helen's data) hLigIII ([2]; 100 μM): NI (NI- no inhibition); % of inhibition @ 100 μM (Helen's data) hLigIV [3]: NI (NI- no inhibition)
10 | O=C(NN=Cc1ccc(S(=O)(=O)O)o1)c1ccccc1O [Compound 79] |  |  |  |  | % of inhibition @ 100 μM (Helen's data) hLigI ([1]; 100 μM): NI (NI- no inhibition); % of inhibition @ 100 μM (Helen's data) hLigIII ([2]; 100 μM): NI (NI- no inhibition); % of inhibition @ 100 μM (Helen's data) hLigIV [3]: NI (NI- no inhibition)
11 | COc1cccc(Cn2nnc(C(=O)O)c2C(=O)O)c1 [Compound 103] | 6.2 ± 4.3% | 23.1 ± 1.8% | Ø | Ø | 
12 | O=C(O)c1ccc(C(=O)O)c(C(=O)O)c1 [Compound 53] | 3.7 ± 4.8% | 36.4 ± 4.7% | Ø | Ø | 
13 | COc1ccc(C(CC(=O)O)NC(=O)c2ccco2)cc1 (stereo not drawn) [Compound 207] | 10 ± 2% | 20.7 ± 19% |  | Ø | inhibition at 100 µM [2, 11]: 25.8 ± 10.7%
14 | Sc1nccc(-c2cccnc2)n1 [Compound 130] |  |  |  |  | inhibition at 100 µM [1, 5]: < 20%; inhibition at 100 µM [2, 6]: < 20%; inhibition at 100 µM [3, 7]: < 20%
15 | COC(=O)c1ccc(-n2nnnc2SCC(=O)c2ccc(O)c(O)c2)cc1 [Compound 32] |  |  |  |  | inhibition of hLigI (DNA ligase I), in words [1]: inhibited hLigI
16 | O=C(O)CN1C(=O)c2ccc([N+](=O)[O-])cc2C1=O [Compound 90] | 1.6 ± 3.1% | 20.7 ± 4.8% | Ø | Ø | 
17 | O=C(O)Cn1nnnc1-c1ccc(F)cc1 [Compound 37] | 3.7% | 25.2 ± 14.1% | Ø | Ø | 
18 | O=C(O)c1ccc(C(=O)c2ccc3c(c2)C(=O)N(CCO)C3=O)cc1 [Compound 46] |  |  |  | Ø | % activity Inhibition hLigI 100 uM ([1]; 100 uM): Ø; inhibition at 100 µM [2, 11]: 21.6 ± 8.56%
19 | O=C(O)c1ccc(Sc2ccccn2)c([N+](=O)[O-])c1 [Compound 47] | 2.2 ± 0.7% | 24.2 ± 4.3% | Ø | Ø | 
20 | O=C1Nc2c(C(=O)O)cccc2C1=O [Compound 25] | 12.9 ± 6.3% | 59.3 ± 7.5% |  | Ø | inhibition at 100 µM ([4]; 100 μM, read-out: In vitro % inhib T4 100): 13 ± 6%; inhibition at 100 µM ([1]; 100 μM, read-out: In vitro % inhib hLigI 100): 59 ± 8%; inhibition of hLigI (DNA ligase I), in words [1]: inhibited hLigI; also recorded: specifically inhibit DNA ligases I and III; inhibition at 100 µM ([2]; 100 μM, read-out: In vitro % inhib hLigIII 100): 73 ± 5%; inhibition at 100 µM [2, 11]: 72.8 ± 4.8%; inhibition of human DNA ligase III, in words ([2]; in vitro screen): specifically inhibit DNA ligases I and III; inhibition at 100 µM ([3]; read-out: In vitro % inhib hLigIV 100): 0%
21 | Oc1nn(-c2ccc(Br)cc2)cc1Br [Compound 221] |  |  |  |  | inhibition at 100 µM [1, 5]: > 20%; inhibition at 100 µM [2, 6]: < 20%; inhibition at 100 µM [3, 7]: < 20%
